Measurements published in US20060211887A1, “Phosphate salts of 6-dimethylaminomethyl-1-(3-methoxyphenyl)-1,3-dihydroxy-cyclohexane compounds” (priority 2005, published 2006).
“Also recorded” adds a separate entry of the source.

What was measured:
[1] = Storage at defined relative atmospheric humidity (approx. 75% or 95%, then approx. 4%) with thermogravimetric analysis, weighing and X-ray powder diffractometry; assay type: physicochemical; conditions: for % pt during / % pt after / % pt (middle): vs before storage; for Form during / Form after / Form middle: X-ray powder diffractometry; for Laboratory after: storage step approx. 4 (±5) % r.h. approx. 20 h; for Laboratory during %: storage step approx. 75 (±5) % r.h. approx. 7 days; for Laboratory during: storage step approx. 95 (±5) % r.h. approx. 7 days
Source text: Storage of the hydrochloride salts, which are not according to the invention (identified H1 to H3 in the following examples of compounds; for the synthesis see the subsequent experimental part), at room temperature over saturated sodium chloride solution results in a relative atmospheric humidity of approx. 75% (±5%). Storage of the samples at room temperature over saturated potassium sulfate solution results in a relative atmospheric humidity of approx. 95% (±5%).
Storage of the samples at room temperature over drying beads (blau+, Engelhardt, Nienburg) results in a relative atmospheric humidity of approx. 4% (±5%).
The samples were stored at approx. 75% relative atmospheric humidity for approx. 8.5 days. The samples were then stored at a relative atmospheric humidity of approx. 4% for a further approx. 6 h.
They were analyzed for their loss in weight by means of thermogravimetric analyses (amount of sample approx. 5-20 mg, heating rate approx. 10 K/min, heating range from approx. 25° C. to approx. 240° C.).
The approximate difference in the moisture content (in percentage points; % pt) from after the storage to before the particular storage step is stated.
In addition, the percentage change in the total weight of the sample occurring in the respective storage step was determined by weighing (“laboratory”).
The crystalline form was determined by means of X-ray powder diffractometry.
The samples were stored at approx. 95% relative atmospheric humidity for approx. 8.5 days. The samples were then stored at a relative atmospheric humidity of approx. 4% for a further approx. 6 h.
The approximate difference in the moisture content (in percentage points; % pt) from after the storage to before the storage is stated.
The samples were stored at approx. 75% relative atmospheric humidity for approx. 7 days. The samples were then stored at a relative atmospheric humidity of approx. 4% for a further approx. 2.5 days.
The approximate difference in the moisture content (in percentage points; % pt) from after the storage step to before the storage is stated.
The samples were stored at approx. 95% relative atmospheric humidity for approx. 7 days. The samples were then stored at a relative atmospheric humidity of approx. 4% for a further approx. 7 days.
Storage of the phosphate salts I-P according to the invention, called samples in the following, at room temperature over saturated sodium chloride solution results in a relative atmospheric humidity of approx. 75 (±5) % . Storage of the samples at room temperature over saturated potassium sulfate solution results in a relative atmospheric humidity of approx. 95 (±5) %.
Storage of the samples at room temperature over drying beads (blau+, Engelhardt, Nienburg) results in a relative atmospheric humidity of approx. 4 (±5) %.
The samples were stored at approx. 75 (±5) % relative atmospheric humidity for approx. 8.5 days. The samples were then stored at a relative atmospheric humidity of approx. 4 (±5) % for a further approx. 6 h.
The samples were stored at approx. 95 (±5) % relative atmospheric humidity for approx. 8.5 days. The samples were then stored at a relative atmospheric humidity of approx. 4 (±5) % for a further approx. 6 h.
The samples were stored at approx. 75 (±5) % relative atmospheric humidity for approx. 7 days. The samples were then stored at a relative atmospheric humidity of approx. 4 (±5) % for a further approx. 20 h.
The samples were stored at approx. 95 (±5) % relative atmospheric humidity for approx. 7 days. The samples were then stored at a relative atmospheric humidity of approx. 4 (±5) % for a further approx. 20 h.
Sample P3 was kept in the laboratory for approx. 55 minutes under ambient conditions before the second storage step.
The interpretation of the specified data is explained again in more detail by the example of the data for P1 given in the preceding Table 8:
Storage of 1: • first storage step: 95% atmospheric humidity • second storage step: 4% atmospheric humidity […]

[2] = Drying of form B of the phosphate salt in vacuo, physical form checked by X-ray powder diffractometry, thermal analysis and 1H NMR; assay type: physicochemical
Experimental: The form B was dried for 13 hours at 40° C. in vacuo.
The form B was dried for 24 hours at 40° C. in vacuo.
Form B was dried at 68° C. in a drying cabinet in vacuo for 3 days.

[3] = after approx. 75 (±5) % r.h. approx. 7 days
[4] = after approx. 95 (±5) % r.h. approx. 7 days
[5] = approx. 75 (±5) % r.h. approx. 7 days, then approx. 4 (±5) % approx. 20 h
[6] = approx. 75 (±5) % r.h. approx. 8.5 days, then approx. 4 (±5) % approx. 6 h
[7] = approx. 95 (±5) % r.h. approx. 7 days, then approx. 4 (±5) % approx. 20 h
[8] = approx. 95 (±5) % r.h. approx. 8.5 days, then approx. 4 (±5) % approx. 6 h
[9] = after approx. 75% r.h. approx. 7 days
[10] = after approx. 95% r.h. approx. 7 days
[11] = approx. 75% r.h. approx. 7 days, then approx. 4% approx. 2.5 days
[12] = approx. 75% r.h. approx. 8.5 days, then approx. 4% approx. 6 h
[13] = approx. 75% relative atmospheric humidity approx. 8.5 days, then approx. 4% approx. 6 h
[14] = approx. 95% r.h. approx. 7 days, then approx. 4% approx. 7 days
[15] = approx. 95% r.h. approx. 8.5 days, then approx. 4% approx. 6 h
[16] = storage step approx. 4% r.h. approx. 2.5 days, after 75% r.h. 7 days
[17] = storage step approx. 4% r.h. approx. 7 days, after 95% r.h. 7 days
[18] = storage step approx. 75% r.h. approx. 7 days
[19] = storage step approx. 95% r.h. approx. 7 days

SMILES	% pt during [1, 3] [% pt]	Form during [1, 3]	% pt during [1, 4]	Form during [1, 4]	% pt after [1, 5] [% pt]	Form after [1, 5]	% pt [1, 6] [% pt]	Laboratory (percentage change in total weight by weighing) [1, 6]	Form after [1, 6]	% pt after [1, 7]	Form after [1, 7]	% pt [1, 8] [% pt]	Laboratory (percentage change in total weight by weighing) [1, 8]	Form after [1, 8]	Laboratory after ([1]; after 75% r.h. 7 days)	Laboratory after ([1]; after 95% r.h. 7 days) [%]	Laboratory during % [1]	also measured
COc1cccc([C@@]2(O)C[C@H](O)CC[C@@H]2CN(C)C)c1 (racemic) [Sample P1, (1RS,3RS,6RS)-6-dimethylaminomethyl-1-(3-methoxyphenyl)-cyclohexane-1,3-diol]	−0.21	form A	−0.19 % pt	form A	−0.04	form A	−0.05	−0.01%	form A	−0.02 % pt	form A	−0.22	+0.12%	form A	+0.07%	−0.04	−0.08%	Weight loss TG (afterwards) ([1]; after second storage step at ca. 4% atmospheric humidity): −4.38%; Weight loss TG (intermediate) ([1]; after storage at 95% atmospheric humidity approx. 7 days): −4.55%; Weight loss TG (beforehand) ([1]; before storage, thermogravimetry approx. 25-240° C.): −4.36%
COc1cccc([C@@]2(O)C[C@H](O)CC[C@@H]2CN(C)C)c1 (racemic) [Sample P2, (1RS,3RS,6RS)-6-dimethylaminomethyl-1-(3-methoxyphenyl)-cyclohexane-1,3-diol]	−0.42	form A	−0.24 % pt	form A	−0.44	form A	−0.17	+0.06%	form A	−0.21 % pt	form A	−0.25	+0.02%	form A	+0.08%	−0.60	+0.02%	Laboratory during [1]: +0.52%
COc1cccc([C@@]2(O)C[C@H](O)CC[C@@H]2CN(C)C)c1 (racemic) [Sample P3, (1RS,3RS,6RS)-6-dimethylaminomethyl-1-(3-methoxyphenyl)-cyclohexane-1,3-diol]	−0.25	form A	+0.21 % pt	form A	−0.33	form A	−0.24	−0.47%	form A	+0.27 % pt	form A	−0.25	−0.39%	form A	−0.75%	−0.04	+0.23%	Laboratory during [1]: 5.33%
COc1cccc([C@@]2(O)C[C@H](O)CC[C@@H]2CN(C)C)c1 (racemic) [form B, (1RS,3RS,6RS)-6-dimethylaminomethyl-1-(3-methoxyphenyl)-cyclohexane-1,3-diol]																		Change in the physical form on drying ([2]; 68° C. in a drying cabinet in vacuo for 3 days): converted into amorphous material; Change in the physical form on drying ([2]; 13 hours at 40° C. in vacuo): no changes in the physical form were observed; Change in the physical form on drying ([2]; 24 hours at 40° C. in vacuo): no changes in the physical form were observed
COc1cccc(C2(O)CC(O)CCC2CN(C)C)c1 (centres unmarked) [Sample H1, 6-dimethylaminomethyl-1-(3-methoxyphenyl)-1,3-dihydroxy-cyclohexane]																		% pt (middle) [1, 9]: −2.73 % pt; Form middle [1, 9]: form A,; also recorded: form B,; also recorded: form C,; also recorded: form D; % pt (middle) [1, 10]: −4.88 % pt; Form middle [1, 10]: form B; % pt after [1, 11]: 0.53 % pt; Form after [1, 11]: form B,; also recorded: form A; % pt (difference in the moisture content, thermogravimetry, after vs before storage) [1, 12]: −1.22 % pt; Laboratory/% (percentage change in total weight by weighing) [1, 12]: +1.14%; Form after [1, 13]: form B, further; % pt after [1, 14]: −3.84 % pt; Form after [1, 14]: form B; % pt (difference in the moisture content, thermogravimetry) [1, 15]: −4.89 % pt; Laboratory/% (percentage change in total weight by weighing) [1, 15]: +4.99%; Form after [1, 15]: form B, further; Laboratory/% (after) [1, 16]: −1.24%; Laboratory/% (after) [1, 17]: −22.76%; Laboratory/% (middle) [1, 18]: 2.89%; Laboratory/% (middle) [1, 19]: +13.72%
COc1cccc(C2(O)CC(O)CCC2CN(C)C)c1 (centres unmarked) [Sample H2, 6-dimethylaminomethyl-1-(3-methoxyphenyl)-1,3-dihydroxy-cyclohexane]																		% pt (difference in the moisture content, thermogravimetry, after vs before storage) [1, 12]: −2.85 % pt; Laboratory/% (percentage change in total weight by weighing) [1, 12]: +2.61%; Form after [1, 13]: form B, further; % pt (difference in the moisture content, thermogravimetry) [1, 15]: −4.95 % pt; Laboratory/% (percentage change in total weight by weighing) [1, 15]: +4.88%; Form after [1, 15]: form B, further
COc1cccc(C2(O)CC(O)CCC2CN(C)C)c1 (centres unmarked) [Sample H3, 6-dimethylaminomethyl-1-(3-methoxyphenyl)-1,3-dihydroxy-cyclohexane]																		% pt (middle) [1, 9]: −4.75 % pt; Form middle [1, 9]: form B; % pt (middle) [1, 10]: −2.37 % pt; Form middle [1, 10]: form B; % pt after [1, 11]: 0.46 % pt; Form after [1, 11]: form B; % pt after [1, 14]: −0.49 % pt; Form after [1, 14]: form B; Laboratory/% (after) [1, 16]: +3.68%; Laboratory/% (after) [1, 17]: −9.19%; Laboratory/% (middle) [1, 18]: +0.02%; Laboratory/% (middle) [1, 19]: +4.34%
